What was measured:
Assay type in all cases: in vivo
[1] = tested on: two spotted spidermite (Tetranychus urticae); test: Tetranychus urticae - spray test OP-resistant; conditions: single active ingredient, French bean leaf disks; for Efficacy in % after 2d: 0.8 g ai/ha, mortality after 2 d
Experimental: (§1) To produce a suitable preparation of active compound, 1 part by weight of active compound is mixed with the stated amount of solvents and is diluted with water, containing an emulsifier concentration of 1000 ppm, to the desired concentration. To produce a suitable preparation of a spore suspension the spores are diluted with emulsifier containing water to the desired concentration. Further test concentrations are prepared by dilution with emulsifier containing water.
French bean (Phaseolus vulgaris) leaf disks which are heavily infested with all stages of the two spotted spidermite (Tetranychus urticae), are sprayed with a preparation of the active ingredient of the desired concentration.
After the specified period of time, mortality in % is determined 100% means all spider mites have been killed and 0% means none of the spider mites have been killed. The mortality values determined thus are recalculated using the Colby-formula (see sheet 1).

[2] = tested on: mustard beetle larvae (Phaedon cochleariae); test: Phaedon cochleariae - spray test; conditions: single active ingredient, 0.16 g ai/ha, mortality after 6 d, Chinese cabbage leaf disks
Experimental: as §1
Chinese cabbage (Brassica pekinensis) leaf disks are sprayed with a preparation of the active ingredient of the desired concentration. Once dry, the leaf disks are infested with mustard beetle larvae (Phaedon cochleariae).
After the specified period of time, mortality in % is determined. 100% means all beetle larvae have been killed and 0% means none of the beetle larvae have been killed. The mortality values determined thus are recalculated using the Colby-formula (see sheet 1).

[3] = tested on: green peach aphid (Myzus persicae); test: Myzus persicae - spray test; conditions: single active ingredient, 0.8 g ai/ha, mortality after 1 d, Chinese cabbage leaf disks
Experimental: as §1
Chinese cabbage (Brassica pekinensis) leaf disks infected with all instars of the green peach aphid (Myzus persicae), are sprayed with a preparation of the active ingredient of the desired concentration.
After the specified period of time, mortality in % is determined 100% means all aphids have been killed; 0% means none of the aphids have been killed. The mortality values determined thus are recalculated using the Colby-formula (see sheet 1).

SMILES | Efficacy in % after 2d [1] [%] | Efficacy in % after 6d [2] [%] | Efficacy in % after 6d ([1]; 0.16 g ai/ha, mortality after 6 d) [%] | Efficacy in % after 1d [3] [%]
Cc1c(COC(=O)[C@@H]2[C@H](/C=C(\Cl)C(F)(F)F)C2(C)C)cccc1-c1ccccc1 (racemic) [Bifenthrin] | 0 | – | – | –
CC1(C)[C@H](C(=O)O[C@H](C#N)c2cccc(Oc3ccccc3)c2)[C@@H]1/C=C(\Cl)C(F)(F)F (racemic) [Lambda- Cyhalothrin, lambda-Cyhalothrin] | – | 33 | – | –
CC1(C)[C@H](C(=O)O[C@H](C#N)c2cccc(Oc3ccccc3)c2)[C@@H]1/C=C\C(=O)OC(C(F)(F)F)C(F)(F)F [Acrinathrin] | 0 | – | 0 | 70
CC1(C)[C@H](C(=O)O[C@H](C#N)c2cccc(Oc3ccccc3)c2)[C@@H]1C=C(Br)Br [Deltamethrin] | 0 | – | – | –
